# Assay results published in patent US20250223277A1, “COMPLEMENT FACTOR B INHIBITORS AND USES THEREOF” (Novartis AG, priority 2022, published 2025).
# Target: Recombinant human factor B (Homo sapiens (Human), UniProt P00751)
# Assay: Human Complement Factor B TR-FRET Assay
# Assay type: binding
# Conditions: assay of Biological Example 2; read-out: hFactor-B TR-FRET Qualified IC50
# Procedure: The time-gated decrease in fluorescence intensity related to the competition between labeled and unlabeled factor B ligands was recorded at both 620 nm and 665 nm, 70 us after excitation at 337 nm using a microplate spectrofluorimeter.
# Chain of Recombinant human factor B (P00751 26-764): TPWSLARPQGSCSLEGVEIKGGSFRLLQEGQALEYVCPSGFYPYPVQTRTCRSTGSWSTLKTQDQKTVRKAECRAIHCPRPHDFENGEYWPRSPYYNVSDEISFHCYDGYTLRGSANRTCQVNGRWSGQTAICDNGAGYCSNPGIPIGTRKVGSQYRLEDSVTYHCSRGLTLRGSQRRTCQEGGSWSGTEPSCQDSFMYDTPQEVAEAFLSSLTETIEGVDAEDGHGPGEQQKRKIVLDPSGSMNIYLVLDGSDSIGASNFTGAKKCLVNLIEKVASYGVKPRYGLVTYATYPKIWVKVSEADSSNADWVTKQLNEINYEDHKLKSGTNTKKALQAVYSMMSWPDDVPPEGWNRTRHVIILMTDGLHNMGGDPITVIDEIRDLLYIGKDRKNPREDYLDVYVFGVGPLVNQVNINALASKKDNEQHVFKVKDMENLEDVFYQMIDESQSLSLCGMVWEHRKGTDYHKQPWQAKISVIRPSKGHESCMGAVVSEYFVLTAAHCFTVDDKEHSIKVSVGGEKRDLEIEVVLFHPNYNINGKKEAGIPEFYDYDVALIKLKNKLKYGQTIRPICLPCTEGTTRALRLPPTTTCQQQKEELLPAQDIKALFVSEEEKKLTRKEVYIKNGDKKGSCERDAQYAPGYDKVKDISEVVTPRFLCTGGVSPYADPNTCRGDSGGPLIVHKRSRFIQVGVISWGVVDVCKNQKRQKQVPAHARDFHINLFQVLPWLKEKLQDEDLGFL
row,Structure (SMILES),IC50
1,"Cc1cc(C)c2[nH]ccc2c1C[C@@H]1CN(CC(F)(F)F)C[C@H]1c1ccc(C(=O)O)cc1 (racemic) [Ex-26, 4-(4-((5,7-dimethyl-1H-indol-4-yl)methyl)-1-(2,2,2-trifluoroethyl)pyrrolidin-3-yl)benzoic acid]",< 30000 nM
2,"Cc1cc(C)c2[nH]ccc2c1C[C@@H]1CCN(C)C[C@H]1c1ccc(C#N)cc1 [Ex-44, 4-((3R,4R)-4-((5,7-dimethyl-1H-indol-4-yl)methyl)-1-methylpiperidin-3-yl)benzonitrile]",< 1000 nM
3,"Cc1cc(C)c2[nH]ccc2c1C[C@@H]1CCN(CC(F)(F)F)C[C@H]1c1ccc(-n2cccn2)cc1 [Ex-47, 4-(((3R,4R)-3-(4-(1H-pyrazol-1-yl)phenyl)-1-(2,2,2-trifluoroethyl)piperidin-4-yl)methyl)-5,7-dimethyl-1H-indole]",< 1000 nM
4,"Cc1cc(C)c2[nH]ccc2c1C[C@@H]1CN(C)C[C@H]1c1ccc(C(N)=O)cc1 (racemic) [Ex-58, Racemic 4-((3R*,4S*)-4-((5,7-dimethyl-1H-indol-4-yl)methyl)-1-methylpyrrolidin-3-yl)benzamide]",< 30000 nM
5,"Cc1cc(C)c2[nH]ccc2c1C[C@@H]1CCN(CC(F)(F)F)C[C@H]1c1ccc(C#N)cc1 [Ex-45, 4-((3R,4R)-4-((5,7-dimethyl-1H-indol-4-yl)methyl)-1-(2,2,2-trifluoroethyl)piperidin-3-yl)benzonitrile]",< 30000 nM
6,"Cc1cc(C)c2[nH]ccc2c1C[C@@H]1CCN(C2COC2)C[C@H]1c1ccc(-n2cccn2)cc1 [Ex-50, 4-(((3R,4R)-3-(4-(1H-pyrazol-1-yl)phenyl)-1-(oxetan-3-yl)piperidin-4-yl)methyl)-5,7-dimethyl-1H-indole]",< 1000 nM
7,"CCN1C[C@@H](Cc2c(C3CC3)cc(C)c3[nH]ccc23)[C@H](c2ccc(-c3nnn[nH]3)cc2)C1 (racemic) [Ex-61, 4-((4-(4-(1H-tetrazol-5-yl)phenyl)-1-ethylpyrrolidin-3-yl)methyl)-5-cyclopropyl-7-methyl-1H-indole]",< 100 nM
8,"Cc1cc(C)c2[nH]ccc2c1C[C@@H]1CCN(C)C[C@H]1c1ccc(-n2cccn2)cc1 [Ex-46, 4-(((3R,4R)-3-(4-(1H-pyrazol-1-yl)phenyl)-1-methylpiperidin-4-yl)methyl)-5,7-dimethyl-1H-indole]",< 100 nM
9,"Cc1cc(C)c2[nH]cc(Cl)c2c1C[C@@H]1CCN(C)C[C@H]1c1ccc(C(=O)O)cc1 [Ex-39, 4-((3R,4R)-4-((3-chloro-5,7-dimethyl-1H-indol-4-yl)methyl)-1-methylpiperidin-3-yl)benzoic acid]",< 100 nM
10,"Cc1cc(C)c2[nH]ccc2c1C[C@@H]1CN(C)C[C@H]1c1ccc(-c2nnn[nH]2)cc1 [Ex-60, 4-(((3S,4R)-4-(4-(2H-tetrazol-5-yl)phenyl)-1-methylpyrrolidin-3-yl)methyl)-5,7-dimethyl-1H-indole]",< 100 nM
11,COc1cc(C)c2[nH]ccc2c1C[C@H]1CCN(CC(F)(F)F)C[C@@H]1c1ccc(C(=O)O)cc1 [Ex-6],< 30000 nM
12,"Cc1cc(C)c2[nH]ccc2c1C[C@@H]1CCN(CC2(F)COC2)C[C@H]1c1ccc(-n2cccn2)cc1 [Ex-49, 4-(((3R,4R)-3-(4-(1H-pyrazol-1-yl)phenyl)-1-((3-fluorooxetan-3-yl)methyl)piperidin-4-yl)methyl)-5,7-dimethyl-1H-indole]",< 100 nM
13,Cc1cc(C2CC2)c(C[C@H]2CCN(CC(F)(F)F)C[C@@H]2c2ccc(C(=O)O)cc2)c2cc[nH]c12 [Ex-4],< 30000 nM
14,"Cc1cc(C)c2[nH]ccc2c1C[C@@H]1CCN(C)C[C@H]1c1ccc(-c2nnn[nH]2)cc1 [Ex-42, 4-(((3R,4R)-3-(4-(1H-tetrazol-5-yl)phenyl)-1-methylpiperidin-4-yl)methyl)-5,7-dimethyl-1H-indole]",< 100 nM
15,"Cc1cc(C)c2[nH]ccc2c1C[C@@H]1CCN(CCC(F)F)C[C@H]1c1ccc(-n2cccn2)cc1 [Ex-48, 4-(((3R,4R)-3-(4-(1H-pyrazol-1-yl)phenyl)-1-(3,3-difluoropropyl)piperidin-4-yl)methyl)-5,7-dimethyl-1H-indole]",< 100 nM
16,"Cc1cc(C2CC2)c(C[C@@H]2CCN(CC(F)(F)F)C[C@H]2c2ccc(C(=O)O)cc2)c2cc[nH]c12 [Ex-3, 4-((3R,4R)-4-((5-cyclopropyl-7-methyl-1H-indol-4-yl)methyl)-1-(2,2,2-trifluoroethyl)piperidin-3-yl)benzoic acid]",< 100 nM
17,"Cc1cc(C)c2[nH]ccc2c1C[C@@H]1CCN(CC2(F)COC2)C[C@H]1c1ccc(C(=O)O)cc1 [Ex-17, 4-((3R,4R)-4-((5,7-dimethyl-1H-indol-4-yl)methyl)-1-((3-fluorooxetan-3-yl)methyl)piperidin-3-yl)benzoic acid]",< 100 nM

# Other lines, results leading:
row,IC50,Structure (SMILES)
1,< 100 nM,"CN1CC[C@@H](Cc2c(Cl)cc(Cl)c3[nH]ccc23)[C@H](c2ccc(C(=O)O)cc2)C1 [Ex-37, 4-((3R,4R)-4-((5,7-dichloro-1H-indol-4-yl)methyl)-1-methylpiperidin-3-yl)benzoic acid]"
2,< 100 nM,"Cc1cc(C)c2[nH]ccc2c1C[C@@H]1CCN(C)CC[C@H]1c1ccc(C(=O)O)cc1 [Ex-30, 4-((4R,5R)-5-((5,7-dimethyl-1H-indol-4-yl)methyl)-1-methylazepan-4-yl)benzoic acid]"
3,< 1000 nM,"Cc1cc(C)c2[nH]ccc2c1C[C@@H]1CCN(C2COC2)C[C@H]1c1ccc(C(=O)O)cc1 [Ex-21, 4-((3R,4R)-4-((5,7-dimethyl-1H-indol-4-yl)methyl)-1-(oxetan-3-yl)piperidin-3-yl)benzoic acid]"
4,< 100 nM,"Cc1cc(F)c(C[C@@H]2CCN(C)C[C@H]2c2ccc(C(=O)O)cc2)c2cc[nH]c12 [Ex-35, 4-((3R,4R)-4-((5-fluoro-7-methyl-1H-indol-4-yl)methyl)-1-methylpiperidin-3-yl)benzoic acid]"
5,< 100 nM,"Cc1cc(C)c2[nH]ccc2c1C[C@@H]1CCCN(C)C[C@H]1c1ccc(C(=O)O)cc1 [Ex-27, 4-((3R,4S)-4-((5,7-dimethyl-1H-indol-4-yl)methyl)-1-methylazepan-3-yl)benzoic acid]"
6,< 30000 nM,"Cc1cc(C)c2[nH]ccc2c1C[C@H]1CCN(CC(F)(F)F)C[C@@H]1c1ccc(C(=O)O)cc1 [Ex-2, 4-((3S,4S)-4-((5,7-dimethyl-1H-indol-4-yl)methyl)-1-(2,2,2-trifluoro-ethyl)piperidin-3-yl)benzoic acid]"
7,< 100 nM,"Cc1cc(C)c2[nH]ccc2c1C[C@@H]1CCN(CCC(F)F)C[C@H]1c1ccc(C(=O)O)cc1 [Ex-23, 4-((3R,4R)-1-(3,3-difluoropropyl)-4-((5,7-dimethyl-1H-indol-4-yl)methyl)piperidin-3-yl)benzoic acid]"
8,< 100 nM,"Cc1cc(C2CC2)c(C[C@@H]2CN(C)C[C@H]2c2ccc(C(=O)O)cc2)c2cc[nH]c12 [Ex-59, 4-((3R,4S)-4-((5-cyclopropyl-7-methyl-1H-indol-4-yl)methyl)-1-methylpyrrolidin-3-yl)benzoic acid]"
9,< 30000 nM,Cc1cc(C)c2[nH]ccc2c1C[C@H]1CCN(C)C[C@@H]1c1ccc(C(=O)O)cc1 [Ex-9]
10,< 1000 nM,"Cc1cc(C)c2[nH]ccc2c1C[C@@H]1CCN(CC(C)(C)O)C[C@H]1c1ccc(C(=O)O)cc1 [Ex-15, 4-((3R,4R)-4-((5,7-dimethyl-1H-indol-4-yl)methyl)-1-(2-hydroxy-2-methylpropyl)piperidin-3-yl)benzoic acid]"
11,< 100 nM,"CCCN1CC[C@@H](Cc2c(C)cc(C)c3[nH]ccc23)[C@H](c2ccc(C(=O)O)cc2)C1 [Ex-20, 4-((3R,4R)-4-((5,7-dimethyl-1H-indol-4-yl)methyl)-1-propylpiperidin-3-yl)benzoic acid]"
12,< 100 nM,"Cc1cc(Cl)c(C[C@@H]2CCN(C)C[C@H]2c2ccc(C(=O)O)cc2)c2cc[nH]c12 [Ex-36, 4-((3R,4R)-4-((5-chloro-7-methyl-1H-indol-4-yl)methyl)-1-methylpiperidin-3-yl)benzoic acid]"
13,< 100 nM,"Cc1cc(C)c2[nH]ccc2c1C[C@@H]1CCN(CC(F)(F)F)C[C@H]1c1ccc(C(=O)O)cc1 [Ex-1, 4-((3R,4R)-4-((5,7-dimethyl-1H-indol-4-yl)methyl)-1-(2,2,2-trifluoroethyl)piperidin-3-yl)benzoic acid]"
14,< 100 nM,"Cc1ccc(C[C@@H]2CCN(C)C[C@H]2c2ccc(C(=O)O)cc2)c2cc[nH]c12 [Ex-33, 4-((3R,4R)-1-methyl-4-((7-methyl-1H-indol-4-yl)methyl)piperidin-3-yl)benzoic acid]"
15,< 1000 nM,"COc1cc(C)c2[nH]ccc2c1C[C@@H]1CCN(CC(F)(F)F)C[C@H]1c1ccc(C(=O)O)cc1 [Ex-5, 4-((3R,4R)-4-((5-methoxy-7-methyl-1H-indol-4-yl)methyl)-1-(2,2,2-trifluoroethyl)piperidin-3-yl)benzoic acid]"
16,< 100 nM,"Cc1cc(C)c2[nH]ccc2c1C[C@@H]1CCN(CCF)C[C@H]1c1ccc(C(=O)O)cc1 [Ex-12, 4-((3R,4R)-4-((5,7-dimethyl-1H-indol-4-yl)methyl)-1-(2-fluoroethyl)piperidin-3-yl)benzoic acid]"
17,< 100 nM,"CCN1CCC[C@@H](Cc2c(C)cc(C)c3[nH]ccc23)[C@H](c2ccc(C(=O)O)cc2)C1 [Ex-29, 4-((3R,4S)-4-((5,7-dimethyl-1H-indol-4-yl)methyl)-1-ethylazepan-3-yl)benzoic acid]"
18,< 1000 nM,"Cc1cc(C)c2[nH]ccc2c1C[C@@H]1CCN(CCC(F)F)CC[C@H]1c1ccc(C(=O)O)cc1 [Ex-32, 4-((4R,5R)-1-(3,3-difluoropropyl)-5-((5,7-dimethyl-1H-indol-4-yl)methyl)azepan-4-yl)benzoic acid]"
19,< 100 nM,"Cc1cc(Cl)c2[nH]ccc2c1C[C@@H]1CCN(C)C[C@H]1c1ccc(C(=O)O)cc1 [Ex-38, 4-((3R,4R)-4-((7-chloro-5-methyl-1H-indol-4-yl)methyl)-1-methylpiperidin-3-yl)benzoic acid]"
20,< 100 nM,"Cc1cc(C)c2[nH]ccc2c1C[C@@H]1CCN(C)C[C@H]1c1ccc(C(=O)O)cc1 [Ex-8, 4-((3R,4R)-4-((5,7-dimethyl-1H-indol-4-yl)methyl)-1-methylpiperidin-3-yl)benzoic acid]"
